This passage reports IC50 results from patent US11505575B2, “Cyclic polypeptides for PCSK9 inhibition” (Merck Sharp & Dohme LLC, priority 2018, dated 2022).

*1 amine or outer side, *2 acyl side, *3 side chain or, on linkers, in order; H or OH if unused. Where a SMILES comes first, the peptide text is derived from it. Bridges are numbered along the chain shown (N, C = ends). [ ]: non-standard residue; d: D form. The star is where a group is joined. Pro(3R,4S-CMe2) = CC1(C)[C@@H]2[C@@H](C(=O)O)NC[C@@H]21; Phe(4-guanidino) = N=C(N)Nc1ccc(C[C@H](N)C(=O)O)cc1; Pro(trans-4-Ph) = O=C(O)[C@@H]1C[C@@H](c2ccccc2)CN1; Trp(7-aza) = N[C@@H](Cc1c[nH]c2ncccc12)C(=O)O; Phe(4-CH2NH2) = NCc1ccc(C[C@H](N)C(=O)O)cc1; Pro(4S-NH2) = N[C@@H]1CN[C@H](C(=O)O)C1; Pro(4,4-F2) = O=C(O)[C@@H]1CC(F)(F)CN1; mXylylene = c1cc(C[*:1])cc(C[*:2])c1; Val(3-OH) = CC(C)(O)[C@H](N)C(=O)O; Myristoyl = CCCCCCCCCCCCCC(=O)*; Aad = N[C@@H](CCCC(=O)O)C(=O)O; Chg = N[C@H](C(=O)O)C1CCCCC1; Tle = CC(C)(C)[C@H](N)C(=O)O; NMeA = CN[C@@H](C)C(=O)O; Nva = CCC[C@H](N)C(=O)O; Mpa = O=C(O)CCS; Sar = CNCC(=O)O

In this test the target is human PCSK9 / human LDLR EGFa domain interaction (Homo sapiens, UniProt Q8NBP7). Briefly: TR-FRET assay of inhibition of the PCSK9-LDLR protein-protein interaction. In kind it is binding. As to conditions: 20 nM biotinylated human PCSK9 + 20 nM his-tagged human LDLR EGFa domain, 2 hours room temperature. The procedure: A time-resolved fluorescence resonance energy (TR-FRET) assay was used to measure inhibition of the PCSK9-LDLR protein-protein interaction. Briefly, 20 nM avitag-biotinylated human PCSK9 was incubated with 20 nM his-tagged human LDLR EGFa domain in the presence of 5 nM LANCE Ulight Streptavidin (Perkin Elmer) and 5 nM europium-Anti-6×His (Perkin Elmer) for 2 hours covered at room temperature in buffer containing 50 mM HEPES, 150 mM NaCl, 5 mM CaCl2, 0.01% BSA and 0.01% Surfactant P20. Compounds were tested in dose-response and concentrations giving half-maximal inhibition calculated using a 4-parameter fit equation.
Chain of human PCSK9 / human LDLR EGFa domain interaction (Q8NBP7 153-692): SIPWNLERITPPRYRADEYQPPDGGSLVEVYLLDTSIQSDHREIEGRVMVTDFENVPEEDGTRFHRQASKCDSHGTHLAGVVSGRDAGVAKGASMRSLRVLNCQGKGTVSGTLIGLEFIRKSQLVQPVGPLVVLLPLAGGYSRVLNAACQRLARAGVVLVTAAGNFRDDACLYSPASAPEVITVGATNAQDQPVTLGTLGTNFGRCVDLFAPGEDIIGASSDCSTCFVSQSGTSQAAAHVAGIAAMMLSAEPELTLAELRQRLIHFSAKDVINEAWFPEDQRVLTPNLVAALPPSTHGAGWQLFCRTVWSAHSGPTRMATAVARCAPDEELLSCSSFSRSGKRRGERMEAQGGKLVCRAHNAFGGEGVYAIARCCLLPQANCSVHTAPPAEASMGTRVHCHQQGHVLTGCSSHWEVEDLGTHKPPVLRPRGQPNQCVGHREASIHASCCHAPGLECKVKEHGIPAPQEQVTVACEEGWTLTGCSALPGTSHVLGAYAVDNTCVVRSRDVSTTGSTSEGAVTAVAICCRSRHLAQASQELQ
Chain of human PCSK9 / human LDLR EGFa domain interaction (Q8NBP7 31-152 partner limits assumed): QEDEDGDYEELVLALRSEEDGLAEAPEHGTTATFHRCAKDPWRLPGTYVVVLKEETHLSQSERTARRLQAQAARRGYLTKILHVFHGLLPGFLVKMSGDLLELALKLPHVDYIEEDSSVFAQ
(Time-resolved FRET reads energy transfer from a long-lived donor to a nearby acceptor.)
As a reminder, the IC50 is the concentration that gives 50% inhibition. As to `CCC[C@H](NC(C)=O)C(=O)N[C@H]1CSCc2cccc(c2)CSC[C@@H](C(N)=O)NC(=O)[C@H]([C@@H](C)O)NC(=O)[C@H](C2CCCCC2)NC(=O)[C@H](Cc2c[nH]c3ncccc23)NC(=O)[C@H](Cc2cnc[nH]2)NC(=O)[C@H](CCC(=O)O)NC(=O)[C@H](Cc2c[nH]c3ncccc23)NC(=O)[C@H]([C@@H](C)O)NC(=O)[C@H]2CCCN2C(=O)[C@H](Cc2ccc(O)cc2)NC(=O)[C@H](C(C)(C)C)NC1=O` [Compound 001] (Ac-[Nva]C[Tle]Y[dP]T[Trp(7-aza)]EH[Trp(7-aza)][Chg]TC-NH2; linker 2-13 via mXylylene), the IC50 was in the range of 1000 to 12100 nM.

Turning to `CCCCCCCCCCCCCC(=O)NCCCC[C@H](NC(C)=O)C(=O)N[C@@H](CCC)C(=O)N[C@H]1CSCc2cccc(c2)CSC[C@@H](C(N)=O)NC(=O)[C@H]([C@@H](C)O)NC(=O)[C@H](C2CCCCC2)NC(=O)[C@H](Cc2c[nH]c3ncccc23)NC(=O)[C@H](Cc2c[nH]cn2)NC(=O)[C@H](CCC(=O)O)NC(=O)[C@H](Cc2c[nH]c3ncccc23)NC(=O)[C@H]([C@@H](C)O)NC(=O)[C@@H]2CCCN2C(=O)[C@H](Cc2ccc(O)cc2)NC(=O)[C@H](C(C)(C)C)NC1=O` [Compound 003] (Ac-K(Myristoyl)[Nva]C[Tle]YPT[Trp(7-aza)]EH[Trp(7-aza)][Chg]TC-NH2; linker 3-14 via mXylylene), the IC50 is 1 to 100 nM.

Consider `CCC[C@@H]1NC(=O)[C@H](Cc2c[nH]c3ncccc23)NC(=O)[C@H]([C@@H](C)O)NC(=O)[C@@H]2CC(F)(F)CN2C(=O)[C@H](Cc2ccc(O)cc2)NC(=O)[C@H](C(C)(C)C)NC(=O)CCSCc2cccc(c2)CSC[C@@H](C(N)=O)NC(=O)[C@H]([C@@H](C)O)NC(=O)[C@H](CCC)NC(=O)[C@H](Cc2ccc(O)cc2)NC(=O)[C@H](CCC(=O)O)NC1=O` [Compound 004] ([Mpa][Tle]Y[Pro(4,4-F2)]T[Trp(7-aza)][Nva]EY[Nva]TC-NH2; linker 1-12 via mXylylene), for which the IC50 fell in the range of 1000 to 12100 nM.

On to `CCC[C@@H]1NC(=O)[C@H](Cc2c[nH]c3ncccc23)NC(=O)[C@H]([C@@H](C)O)NC(=O)[C@@H]2C[C@@H](c3ccccc3)CN2C(=O)[C@H](Cc2ccc(O)cc2)NC(=O)[C@H](C(C)(C)C)NC(=O)CCSCc2cccc(c2)CSC[C@@H](C(N)=O)NC(=O)[C@H]([C@@H](C)O)NC(=O)[C@H](CCC)NC(=O)[C@H](Cc2ccc(O)cc2)NC(=O)[C@H](CCC(=O)O)NC1=O` [Compound 005] ([Mpa][Tle]Y[Pro(trans-4-Ph)]T[Trp(7-aza)][Nva]EY[Nva]TC-NH2; linker 1-12 via mXylylene), for which the IC50 was 1000 to 12100 nM.

Regarding `CCC[C@H](NC(C)=O)C(=O)N[C@H]1CSCc2cccc(c2)CSC[C@@H](C(N)=O)NC(=O)[C@H]([C@@H](C)O)NC(=O)[C@H](C2CCCCC2)NC(=O)[C@H](Cc2c[nH]c3ncccc23)NC(=O)[C@H](Cc2cnc[nH]2)NC(=O)[C@H](CCC(=O)O)NC(=O)[C@H](Cc2c[nH]c3ncccc23)NC(=O)[C@H]([C@@H](C)O)NC(=O)[C@H](C)N(C)C(=O)[C@H](Cc2ccc(O)cc2)NC(=O)[C@H](C(C)(C)C)NC1=O` [Compound 006] (Ac-[Nva]C[Tle]Y[NMeA]T[Trp(7-aza)]EH[Trp(7-aza)][Chg]TC-NH2; linker 2-13 via mXylylene), the IC50 was in the range of 1000 to 12100 nM.

`CCC[C@H](NC(C)=O)C(=O)N[C@H]1CSCc2cccc(c2)CSC[C@@H](C(N)=O)NC(=O)[C@H]([C@@H](C)O)NC(=O)[C@H](C2CCCCC2)NC(=O)[C@H](Cc2c[nH]c3ncccc23)NC(=O)[C@H](Cc2c[nH]cn2)NC(=O)[C@H](CCC(=O)O)NC(=O)[C@H](Cc2c[nH]c3ncccc23)NC(=O)[C@H]([C@@H](C)O)NC(=O)CN(C)C(=O)[C@H](Cc2ccc(O)cc2)NC(=O)[C@H](C(C)(C)C)NC1=O` [Compound 007] (Ac-[Nva]C[Tle]Y[Sar]T[Trp(7-aza)]EH[Trp(7-aza)][Chg]TC-NH2; linker 2-13 via mXylylene): the IC50 is 1000 to 12100 nM.

In the case of `CCC[C@@H]1NC(=O)[C@H](Cc2c[nH]c3ncccc23)NC(=O)[C@H]([C@@H](C)O)NC(=O)[C@@H]2[C@@H]3[C@H](CN2C(=O)[C@H](Cc2ccc(O)cc2)NC(=O)[C@H](C(C)(C)C)NC(=O)CCSCc2cccc(c2)CSC[C@@H](C(N)=O)NC(=O)[C@H]([C@@H](C)O)NC(=O)[C@H](CCC)NC(=O)[C@H](Cc2ccc(O)cc2)NC(=O)[C@H](CCC(=O)O)NC1=O)C3(C)C` [Compound 008] ([Mpa][Tle]Y[Pro(3R,4S-CMe2)]T[Trp(7-aza)][Nva]EY[Nva]TC-NH2; linker 1-12 via mXylylene), the IC50 fell in the range of 100 to 1000 nM.

With `CCC[C@@H]1NC(=O)[C@H](Cc2c[nH]c3ncccc23)NC(=O)[C@H]([C@@H](C)O)NC(=O)[C@@H]2C[C@H](N)CN2C(=O)[C@H](Cc2ccc(O)cc2)NC(=O)[C@H](C(C)(C)C)NC(=O)CCSCc2cccc(c2)CSC[C@@H](C(N)=O)NC(=O)[C@H]([C@@H](C)O)NC(=O)[C@H](C2CCCCC2)NC(=O)[C@H](Cc2ccc(O)cc2)NC(=O)[C@H](CCCC(=O)O)NC1=O` [Compound 010] ([Mpa][Tle]Y[Pro(4S-NH2)]T[Trp(7-aza)][Nva][Aad]Y[Chg]TC-NH2; linker 1-12 via mXylylene), the IC50 is 100 to 1000 nM.

As for `CCC[C@@H]1NC(=O)[C@H](Cc2c[nH]c3ncccc23)NC(=O)[C@H]([C@@H](C)O)NC(=O)[C@H](Cc2cnc[nH]2)NC(=O)[C@H](Cc2ccc(O)cc2)NC(=O)[C@H](C(C)(C)C)NC(=O)[C@@H](NC(C)=O)CCC(=O)NCc2ccc(cc2)C[C@@H](C(N)=O)NC(=O)[C@H]([C@@H](C)O)NC(=O)[C@H](CCC)NC(=O)[C@H](Cc2ccc(O)cc2)NC(=O)[C@H](CCC(=O)O)NC1=O` [Compound 013] (Ac-E[Tle]YHT[Trp(7-aza)][Nva]EY[Nva]T[Phe(4-CH2NH2)]-NH2; lactam 1-12), the IC50 was 100 to 1000 nM.

Consider `CCC[C@@H]1NC(=O)[C@H](Cc2c[nH]c3ncccc23)NC(=O)[C@H]([C@@H](C)O)NC(=O)[C@H](Cc2cnc[nH]2)NC(=O)[C@H](Cc2ccc(O)cc2)NC(=O)[C@H](C(C)(C)C)NC(=O)CCSCc2cccc(c2)CSC[C@H](C(N)=O)NC(=O)[C@H]([C@@H](C)O)NC(=O)[C@H](C2CCCCC2)NC(=O)[C@H](Cc2ccc(O)cc2)NC(=O)[C@H](CCC(=O)O)NC1=O` [Compound 043] ([Mpa][Tle]YHT[Trp(7-aza)][Nva]EY[Chg]T[dC]-NH2; linker 1-12 via mXylylene), for which the IC50 was 100 to 1000 nM.

For `CCC[C@@H]1NC(=O)[C@H](Cc2c[nH]c3ncccc23)NC(=O)[C@H]([C@@H](C)O)NC(=O)[C@H](Cc2cnc[nH]2)NC(=O)[C@H](Cc2ccc(O)cc2)NC(=O)[C@H](C(C)(C)C)NC(=O)CCSCc2cccc(c2)CSC[C@H](C(N)=O)NC(=O)[C@H](C(C)(C)O)NC(=O)[C@H](CCC)NC(=O)[C@H](Cc2ccc(O)cc2)NC(=O)[C@H](CCC(=O)O)NC1=O` [Compound 044] ([Mpa][Tle]YHT[Trp(7-aza)][Nva]EY[Nva][Val(3-OH)][dC]-NH2; linker 1-12 via mXylylene), the IC50 was 100 to 1000 nM.

As for `CCC[C@@H]1NC(=O)[C@H](Cc2c[nH]c3ncccc23)NC(=O)[C@H]([C@@H](C)O)NC(=O)[C@H](CCCCN)NC(=O)[C@H](Cc2ccc(O)cc2)NC(=O)[C@H](C(C)(C)C)NC(=O)CCSCc2cccc(c2)CSC[C@@H](C(N)=O)NC(=O)[C@H]([C@@H](C)O)NC(=O)[C@H](C2CCCCC2)NC(=O)[C@H](Cc2ccc(O)cc2)NC(=O)[C@H](CCC(=O)O)NC1=O` [Compound 046] ([Mpa][Tle]YKT[Trp(7-aza)][Nva]EY[Chg]TC-NH2; linker 1-12 via mXylylene), the IC50 fell in the range of 100 to 1000 nM.

For `CCC[C@@H]1NC(=O)[C@H](Cc2c[nH]c3ncccc23)NC(=O)[C@H]([C@@H](C)O)NC(=O)[C@H](CCC(=O)O)NC(=O)[C@H](Cc2ccc(O)cc2)NC(=O)[C@H](C(C)(C)C)NC(=O)CCSCc2cccc(c2)CSC[C@@H](C(N)=O)NC(=O)[C@H]([C@@H](C)O)NC(=O)[C@H](C2CCCCC2)NC(=O)[C@H](Cc2ccc(O)cc2)NC(=O)[C@H](CCCCN)NC1=O` [Compound 047] ([Mpa][Tle]YET[Trp(7-aza)][Nva]KY[Chg]TC-NH2; linker 1-12 via mXylylene), the IC50 fell in the range of 100 to 1000 nM.

As for `CCC[C@H](NC(=O)[C@H](Cc1c[nH]c2ncccc12)NC(=O)[C@H](NC(C)=O)[C@@H](C)O)C(=O)NC1CCC(=O)NCCCCCNC(=O)[C@H](Cc2ccc(O)cc2)NC(=O)[C@H](C(C)(C)C)NC(=O)CCSCc2cccc(c2)CSC[C@H](C(N)=O)NC(=O)[C@H]([C@@H](C)O)NC(=O)[C@H](C2CCCCC2)NC(=O)[C@H](Cc2ccc(O)cc2)NC1=O` (stereo partly shown) [Compound 049], the IC50 lay within 1000 to 12100 nM.

With `CCC[C@@H]1NC(=O)[C@H](Cc2c[nH]c3ncccc23)NC(=O)[C@H]([C@@H](C)O)NC(=O)[C@H](Cc2cnc[nH]2)NC(=O)[C@H](Cc2ccc(O)cc2)NC(=O)[C@H](C(C)(C)C)NC(=O)[C@@H](NC(=O)[C@H](CCCNC(=N)N)NC(C)=O)CSCc2cccc(c2)CSC[C@@H](C(N)=O)NC(=O)[C@H]([C@@H](C)O)NC(=O)[C@H](CCC)NC(=O)[C@H](Cc2ccc(O)cc2)NC(=O)[C@H](CCC(=O)O)NC1=O` [Compound 050] (Ac-RC[Tle]YHT[Trp(7-aza)][Nva]EY[Nva]TC-NH2; linker 2-13 via mXylylene), the concentration for half-maximal inhibition (IC50) is 100 to 1000 nM.

With `CCC[C@@H]1NC(=O)[C@H](Cc2ccc(NC(=N)N)cc2)NC(=O)[C@H]([C@@H](C)O)NC(=O)[C@H](Cc2cnc[nH]2)NC(=O)[C@H](Cc2ccc(O)cc2)NC(=O)[C@H](C(C)(C)C)NC(=O)CCSCc2cccc(c2)CSC[C@@H](C(N)=O)NC(=O)[C@H]([C@@H](C)O)NC(=O)[C@H](CCC)NC(=O)[C@H](Cc2ccc(O)cc2)NC(=O)[C@H](CCC(=O)O)NC1=O` [Compound 055] ([Mpa][Tle]YHT[Phe(4-guanidino)][Nva]EY[Nva]TC-NH2; linker 1-12 via mXylylene), the IC50 lay in the range of 1000 to 12100 nM.
